According to the supplement of paper PMC8960247:
Where a name gives a salt, the structure may show the parent alone. ± gives the standard error.

What was measured:
[1] = system: 621-102 (TSC2-deficient); experiment: relative viability vs DMSO; higher = less cytotoxic; details: serum: 10% FBS, 72 h
[2] = system: 621-103 (TSC2-rescued); experiment: as above; details: serum: 10% FBS, 72 h
[3] = system: 621-102 (TSC2-deficient); experiment: relative viability vs DMSO (fraction); higher = less cytotoxic; details: serum: 0.1% FBS, 72 h
[4] = system: UMB1949 (TSC2-deficient); experiment: as above; details: serum: 0.1% FBS, 72 h;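 note: renal angiomyolipoma cell lines screened in 384-well plates, viability normalized per plate to DMSO-treated cells, each plate carrying 50 nM rapamycin and 1 µM staurosporine controls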

What does the source list for `Nc1cccc2c1C(=O)N(C1CCC(=O)NC1=O)C2=O` (stereo not given) [Pomalidomide]?
relative viability ([1]; 0.0001 µM): 107 ± 1.1%; relative viability ([1]; 0.001 µM): 112 ± 1.7%; relative viability ([1]; 0.01 µM): 108 ± 3.3%; relative viability ([1]; 0.1 µM): 116 ± 1.5%; relative viability ([1]; 1 µM): 118 ± 2.1%; relative viability ([1]; 10 µM): 118 ± 4%; relative viability ([2]; 0.0001 µM): 104.77 ± 0.07%; relative viability ([2]; 0.001 µM): 102.3 ± 0.72%; relative viability ([2]; 0.01 µM): 101.3 ± 0.69%; relative viability ([2]; 0.1 µM): 96.9 ± 1.3%; relative viability ([2]; 1 µM): 98.59 ± 0.92%; relative viability ([2]; 10 µM): 100.7 ± 0.95%; relative viability ([3]; 0.0128 nM): 1.18; relative viability ([3]; 0.064 nM): 0.947; relative viability ([3]; 0.32 nM): 1.03; relative viability ([3]; 1.6 nM): 0.975; relative viability ([3]; 8 nM): 0.951; relative viability ([3]; 40 nM): 1.02; relative viability ([3]; 200 nM): 0.939; relative viability ([3]; 1000 nM): 0.985; relative viability ([3]; 5000 nM): 0.951; relative viability ([4]; 0.0128 nM): 1.06; relative viability ([4]; 0.064 nM): 0.959; relative viability ([4]; 0.32 nM): 1.04; relative viability ([4]; 1.6 nM): 1.03; relative viability ([4]; 8 nM): 1.18; relative viability ([4]; 40 nM): 1.04; relative viability ([4]; 200 nM): 1.07; relative viability ([4]; 1000 nM): 0.943; relative viability ([4]; 5000 nM): 0.912

What does the source list for `Nc1ncn([C@H]2C[C@H](O)[C@@H](CO)O2)c(=O)n1` [Decitabine]?
relative viability ([1]; 0.0001 µM): 104 ± 11%; relative viability ([1]; 0.001 µM): 94.3 ± 5.7%; relative viability ([1]; 0.01 µM): 98.29 ± 0.53%; relative viability ([1]; 0.1 µM): 98.5 ± 1.5%; relative viability ([1]; 1 µM): 80.2 ± 4.8%; relative viability ([1]; 10 µM): 93.1 ± 7.1%; relative viability ([2]; 0.0001 µM): 112 ± 7.6%; relative viability ([2]; 0.001 µM): 102.5 ± 0.51%; relative viability ([2]; 0.01 µM): 95.65 ± 0.75%; relative viability ([2]; 0.1 µM): 95.7 ± 3.1%; relative viability ([2]; 1 µM): 85.5 ± 6.7%; relative viability ([2]; 10 µM): 83.8 ± 3.4%; relative viability ([3]; 0.0128 nM): 1; relative viability ([3]; 0.064 nM): 0.906; relative viability ([3]; 0.32 nM): 1; relative viability ([3]; 1.6 nM): 0.888; relative viability ([3]; 8 nM): 0.803; relative viability ([3]; 40 nM): 0.544; relative viability ([3]; 200 nM): 0.312; relative viability ([3]; 1000 nM): 0.104; relative viability ([3]; 5000 nM): 0.0392; relative viability ([4]; 0.0128 nM): 1.08; relative viability ([4]; 0.064 nM): 1.04; relative viability ([4]; 0.32 nM): 0.99; relative viability ([4]; 1.6 nM): 0.967; relative viability ([4]; 8 nM): 1.08; relative viability ([4]; 40 nM): 0.973; relative viability ([4]; 200 nM): 0.635; relative viability ([4]; 1000 nM): 0.277; relative viability ([4]; 5000 nM): 0.155

Which results are given for `COC1=CC(c2cc3ccccc3[nH]2)=N/C1=C\c1[nH]c(C)cc1C` [Obatoclax Mesylate]?
relative viability ([1]; 0.0001 µM): 116.6 ± 0.46%; relative viability ([1]; 0.001 µM): 115 ± 5.2%; relative viability ([1]; 0.01 µM): 101.8 ± 0.93%; relative viability ([1]; 0.1 µM): 54 ± 2.3%; relative viability ([1]; 1 µM): 16.9 ± 0.25%; relative viability ([1]; 10 µM): 5.18 ± 0.8%; relative viability ([2]; 0.0001 µM): 102.9 ± 0.9%; relative viability ([2]; 0.001 µM): 99.7 ± 1.6%; relative viability ([2]; 0.01 µM): 96.8 ± 0.97%; relative viability ([2]; 0.1 µM): 68.9 ± 2%; relative viability ([2]; 1 µM): 28.8 ± 0.29%; relative viability ([2]; 10 µM): 5.57 ± 0.73%; relative viability ([3]; 0.0128 nM): 1.24; relative viability ([3]; 0.064 nM): 0.96; relative viability ([3]; 0.32 nM): 1.05; relative viability ([3]; 1.6 nM): 1.17; relative viability ([3]; 8 nM): 1.06; relative viability ([3]; 40 nM): 0.847; relative viability ([3]; 200 nM): 0.128; relative viability ([3]; 1000 nM): 0.00422; relative viability ([3]; 5000 nM): 0.00238; relative viability ([4]; 0.0128 nM): 1.1; relative viability ([4]; 0.064 nM): 1.01; relative viability ([4]; 0.32 nM): 1.06; relative viability ([4]; 1.6 nM): 1.08; relative viability ([4]; 8 nM): 1; relative viability ([4]; 40 nM): 0.616; relative viability ([4]; 200 nM): 0.0115; relative viability ([4]; 1000 nM): 0.00837; relative viability ([4]; 5000 nM): 0.0101
